# Results taken from PubChem BioAssay (NCI).
# Values joined by “and” are separate entries in the source; they are usually repeats but may differ in a detail not shown here. Equal values may be shown once.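 Cultured in 96-well plates, cells were exposed to test compound for 48 hours across five concentrations. GI50 = concentration required for 50% inhibition of growth. Definition used: TGI = concentration required for complete inhibition of growth.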
# Tests used:
# Experiment in all cases: growth of human tumour cells (NCI), 48 h
# COLO 205 colon = system: COLO 205 colon
# IGROV1 ovarian = system: IGROV1 ovarian
# K-562 leukemia = system: K-562 leukemia
# KM12 colon = system: KM12 colon
# NCI-H23 lung = system: NCI-H23 lung
# OVCAR-4 ovarian = system: OVCAR-4 ovarian
# UO-31 renal = system: UO-31 renal
# A549 NSCLC = system: A549 NSCLC
# RXF 393 renal = system: RXF 393 renal
# SF-295 CNS = system: SF-295 CNS
SMILES,TGI (COLO 205 colon) [µM],TGI (IGROV1 ovarian) [µM],TGI (K-562 leukemia),TGI (KM12 colon) [µM],TGI (NCI-H23 lung) [µM],TGI (OVCAR-4 ovarian),TGI (UO-31 renal) [µM],TGI (A549 NSCLC),TGI (RXF 393 renal) [µM],TGI (SF-295 CNS) [µM],GI50 (A549 NSCLC),GI50 (COLO 205 colon) [µM],GI50 (IGROV1 ovarian),GI50 (K-562 leukemia) [µM],GI50 (KM12 colon),GI50 (NCI-H23 lung),GI50 (OVCAR-4 ovarian) [µM],GI50 (RXF 393 renal),GI50 (SF-295 CNS),GI50 (UO-31 renal) [µM]
CN(CCNC(=O)c1cn(C)c2c1ccc1cc(Cl)ccc12)CCNC(=O)c1cn(C)c2c1ccc1cc(Cl)ccc12,2.57,21.6,13.6 µM,3.03,4.87,3.68 µM,2.94,–,–,–,–,–,–,–,–,–,–,–,–,–
O=NN(CCCl)C(=O)Nc1ccc(Cl)c(Cl)c1,> 100,> 100,> 100 µM,> 100,> 100,> 100 µM,99.3,> 100 µM,> 100,> 100,–,–,–,–,–,–,–,–,–,–
OCCSCc1cc(Cl)cc(Cl)c1O,> 100,> 100,> 100 µM,> 100,> 100,> 100 µM,> 100,> 100 µM,> 100,> 100,–,–,–,–,–,–,–,–,–,–
Nc1nccc2c1ncn2C1C=C(CO)C(O)C1O (centres undefined),> 1000,> 1000,> 1000 µM,> 1000,> 1000,> 1000 µM,–,> 1000 µM,> 1000,–,> 1000 µM,7.35,> 1000 µM,0.249,0.755 µM,269 µM,> 1000,851 µM,–,–
CC(C)(C)OC(=O)N1CCCC1C(=O)NCCNc1ccc(NCCNC(=O)C2CCCN2C(=O)OC(C)(C)C)c2c1C(=O)c1ccccc1C2=O (centres undefined),27.5,31.7,> 100 µM,41.7,29.4,51.4 µM,–,33.9 µM,–,32,–,–,–,–,–,–,–,–,–,–
O=[P+](O)c1cccs1,> 100,> 100,> 100 µM,–,> 100,–,> 100,> 100 µM,> 100,> 100,–,–,–,–,–,–,–,–,–,–
O=C1CSc2sc(=S)sc2S1,> 100,> 100,> 100 µM,> 100,> 100,> 100 µM,> 100,> 100 µM,> 100,> 100,–,–,–,–,–,–,–,–,–,–
CCOC(=O)c1c(SC)nc(-c2ccc(Cl)cc2)sc1=N,44.9,54.5,> 100 µM,> 100,80.3,> 100 µM,> 100,> 100 µM,> 100,> 100,–,–,–,–,–,–,–,–,–,–
Cc1ccc(NC(=O)CC(=O)n2nc(-c3ccccc3)c(N=Nc3ccccc3C(=O)O)c2-c2ccccc2)cc1,> 100,> 100,> 100 µM,> 100,–,> 100 µM,> 100,> 100 µM,> 100,> 100,–,–,–,–,–,–,–,–,–,–
O=C1NC2(NC(=O)C1=O)Nc1ccccc1S2,> 54.9,> 100,> 64.7 µM,> 100,> 100,> 100 µM,> 95.4,> 100 µM,> 100,> 100,–,–,–,–,–,–,–,–,–,–
COc1cccc2c1C(=O)c1c(O)c3c(c(O)c1C2=O)C[C@@](O)(C(C)=O)C[C@@H]3OC1CC(N(C)C)C(O)C(C)O1 (some centres undefined),–,–,1.09 µM and 0.182 µM,–,–,0.52 µM and 0.977 µM,–,0.423 µM and 1.65 µM,–,–,0.0816 µM and 0.035 µM,0.0133,0.0218 µM and < 0.0111 µM,0.00456,0.0171 µM and 0.0131 µM,0.0394 µM and < 0.0142 µM,< 0.0164,0.0487 µM and < 0.0151 µM,0.0188 µM and 0.0254 µM,0.0561
CC1C(O)[C@@]2(OC[C@@]34C(=O)CC5(O)[C@H](CCC6Cc7nc8c(nc7C[C@]65C)CC5CC[C@@H]6C7=C[C@H]9O[C@@]%10(O[C@@](C)(CO)C[C@@H]%10O)C(C)[C@@]9(O)[C@]7(C)[C@@H](O)CC6[C@]5(C)C8)C3=CC[C@H]4C2C)OC1(C)C (some centres undefined),0.361,> 3.55,0.0798 µM,> 3.55,0.435,> 3.55 µM,0.134,0.494 µM,< 0.000355,< 0.000355,–,–,–,–,–,–,–,–,–,–
COC[C@@H]1Cc2cc(OC)c3c(c2[C@H](c2ccc(OC)c(OC)c2)[C@H]1COC)OCO3,> 100,> 100,–,> 100,> 100,–,> 100,> 100 µM,> 100,> 100,–,–,–,–,–,–,–,–,–,–
Cc1cc(O)c2cc3c(O)c(O)ccc3cc2c1,1.46,10.8,3.33 µM,2.32,6,5.53 µM,2.22,> 26.3 µM,14.1,10.8,–,–,–,–,–,–,–,–,–,–
